How the values were obtained:
[1] = test system: ASIC3 currents in CHO cells co-expressing ASIC3 and PAR2; test: Whole-cell patch clamp of proton-gated currents (I pH 6.6) in CHO cells co-expressing ASIC3 and PAR2; type: cell-based, Chinese hamster
Protocol: ASIC3, ASIC1a, ASIC1b, ASIC2b, and PAR2 complementary DNAs (cDNAs) were used for heterologous expression in CHO cells as described previously (Wang et al., 2013). In brief, CHO cells were cultured at 37 °C in a humidified atmosphere of 5% CO2 and […] and passaged twice a week. Transient transfection of CHO cells was performed using HilyMax liposome transfection reagent (Dojindo Laboratories). CHO cells were maintained in F-12 Nutrient Mixture (added 1.176 g of NaHCO3/L medium) supplemented with 10% fetal bovine serum and 1% gluta-MAXTM-1 (100×; Invitrogen). When ASIC3 and PAR2 cDNAs were co-transfected, the ratio was kept at 1:1. All plasmids used contained, in addition to the desired ASIC3 cDNA, the coding sequence for enhanced green fluorescent protein to aid identification of transfected cells. Electrophysiological measurements were performed 24–48 h after transfection.
Whole-cell patch clamp and voltage clamp recordings were carried out at room temperature (22–25 °C) using a MultiClamp-700B amplifier and Digidata-1440A A/D converter (Axon Instruments, CA, USA). Recording pipettes were pulled using a Sutter P-97 puller (Sutter Instruments, CA, USA). The micropipettes were filled with internal solution containing (mM) KCl 140, MgCl2 2.5, HEPES 10, EGTA 11, and ATP 5; its pH was adjusted to 7.2 with KOH, and osmolarity was adjusted to 310 mOsm/L with sucrose. Cells were bathed in an external solution containing (mM) NaCl 150, KCl 5, CaCl2 2.5, MgCl2 2, HEPES 10, D-glucose 10; its osmolarity was adjusted to 330 mOsm/L with sucrose and its pH to 7.4. The resistance of the recording pipette was in the range of 3–6 MΩ. A small patch of membrane underneath the tip of the pipette was aspirated to form a giga seal, and then, a negative pressure was applied to rupture it, thus establishing a whole-cell configuration. The series resistance was compensated for by 70–80%. The adjustment of capacitance compensation was also done before recording the membrane currents. The membrane voltage was maintained at −60 mV in all voltage clamp experiments unless otherwise specified. Current clamp recordings were obtained by switching to current clamp mode after a stable whole-cell configuration was formed in voltage clamp mode. Only cells with a stable resting membrane potential (more negative than −50 mV) were used in the study. Signals were sampled at 10 to 50 kHz and filtered at 2 to 10 kHz, and the data were stored in compatible PC computer for off-online analysis using the pCLAMP 10 acquisition software (Axon Instruments, CA, USA).
Drugs purchased from Sigma and used in the experiments include hydrochloric acid, 2-furoyl-LIGRLO-NH2 (a PAR2-activating peptide (PAR2-AP)), trypsin, FSLLRY-NH2, APETx2, and capsazepine. Different pH values were configured with hydrochloric acid and external solution. All drugs were dissolved daily in the external solution just before use and held in a linear array of fused silica tubes (o.d./i.d. = 500 μm/200 μm) connected to a series of independent reservoirs. The application pipette tips were positioned ∼30 μm away from the recorded neurons. The application of each drug was driven by gravity and controlled by the corresponding valve, and rapid solution exchange could be achieved within about 100 ms by shifting the tubes horizontally with a PC-controlled micromanipulator. Cells were constantly bathed in normal external solution flowing from one tube connected to a larger reservoir between drug applications. In some experiments where GDP-β-S (Sigma), U-73122(Sigma), and GF109203X (RBI) were applied for intracellular dialysis through recording patch pipettes, they were dissolved in the internal solution before use. To ensure that the cell interior was perfused with the dialysis drug, there was at least a 30-min interval between the establishment of whole-cell access and the current measurement. […]

rat DRG neurons = test: Current clamp of acidosis-evoked action potentials (spikes) in rat DRG neurons; type: cell-based; conditions: PAR2-AP 10^−5 M for 1 min; pH 6.6 for 5 s; capsazepine 10 μM; control 3.5 ± 0.6; P < 0.05; n = 9
Text: The experimental protocol was approved by the animal research ethics committee of Hubei University of Science and Technology (No. 2016–67). All procedures conformed to international guidelines on the ethical use of animals, and every effort was made to minimize the number of animals used and their sufferings. Five- to 6-week-old Sprague–Dawley male rats were anesthetized with 7% chloral hydrate and then decapitated. The DRGs were taken out and transferred immediately into Dulbecco’s modified Eagle’s medium (DMEM, Sigma) at pH 7.4. After the removal of the surrounding connective tissues, the DRGs were minced with fine spring scissors and the ganglion fragments were placed in a flask containing 5 ml of DMEM in which trypsin (type II-S, Sigma) 0.5 mg/ml, collagenase (type I-A, Sigma) 1.0 mg/ml, and DNase (type IV, Sigma) 0.1 mg/ml had been dissolved and incubated at 35 °C in a shaking water bath for 25–30 min. Soybean trypsin inhibitor (type II-S, Sigma) 1.25 mg/ml was then added to stop trypsin digestion. The incubating solution was then replaced by external solution. […]
Drugs purchased from Sigma and used in the experiments include hydrochloric acid, 2-furoyl-LIGRLO-NH2 (a PAR2-activating peptide (PAR2-AP)), trypsin, FSLLRY-NH2, APETx2, and capsazepine. […] The application pipette tips were positioned ∼30 μm away from the recorded neurons. […]

Substance: 2-furoyl-LIGRLO-NH2 [PAR2-AP]
- maximum effect (potentiation of ASIC3 currents) ([1]; 10^−4 M, pre-applied 1 min, I pH 6.6, n = 9): 66.6 ± 7.5%
- increase of peak amplitude of I pH 6.6 after pretreatment with agonist alone ([1]; 10^−5 M for 1 min, n = 10): 61.6 ± 4.6%
- EC50 ([1]; I pH 6.6 for 5 s, PAR2-AP 10^−9–10^−4 M pre-applied 1 min, −60 mV, mean ± SEM of 8 to 10 cells, read-out: EC50 of PAR2-AP for potentiation of peak amplitude of proton-gated (ASIC3) currents): 290 nM
- threshold pH value of proton concentration–response curve in presence vs absence of PAR2-AP ([1]; PAR2-AP 10^−5 M): no significant difference
- increase in the maximal current response to protons ([1]; PAR2-AP 10^−5 M pre-applied, proton concentration–response curve, 8 to 10 cells): 58.7 ± 3.8%
- Hill coefficient of proton concentration–response curve in the presence of PAR2-AP ([1]; PAR2-AP 10^−5 M, 2.36 ± 0.13 in its absence, P > 0.1): 2.28 ± 0.15
- Hill coefficient of steady-state desensitization with PAR2-AP ([1]; PAR2-AP 10^−5 M, 3.58 ± 0.29 without): 3.65 ± 0.35
- pH50 (pH for half-maximal current response) with PAR2-AP pretreatment ([1]; PAR2-AP 10^−5 M, 6.70 ± 0.02 without, P > 0.1): 6.71 ± 0.04
- pH50 for steady-state desensitization in the presence of PAR2-AP ([1]; PAR2-AP 10^−5 M, conditioning pH 7.6 to 6.6 for 2 min, then pH 6.0, 7.16 ± 0.01 without, P < 0.05, 6 to 8 cells): 7.05 ± 0.02
- Hill coefficient of the concentration–response curve for PAR2-AP ([1]; potentiation of I pH 6.6, pre-applied 1 min): 0.76
- mean number of spikes induced by acidosis after PAR2-AP pretreatment (rat DRG neurons): 6.3 ± 0.9
